Measurements taken from patent publication US10526291B2, “Potent dual BRD4-kinase inhibitors as cancer therapeutics” (H. Lee Moffitt Cancer Center and Research Institute, Inc., priority 2014, dated 2020).

Target: BRD4 (Homo sapiens, UniProt O60885)
Experiment: Differential Scanning Fluorimetry (DSF), stability of BRD4 upon ligand binding
Conditions: for ΔTm at 4 µM: 100 μM protein, 4 μM compound and 2% DMSO; for IC50: estimated
Protocol: DSF=Differential Scanning Fluorimetry; provides a measure of the increased stability of BRD4 upon ligand binding The DSF experiment was run at 100 μM protein, 4 μM compound and 2% DMSO.

| Structure (SMILES) | ΔTm at 4 µM | IC50 |
| --- | --- | --- |
| CN1CCN(c2ccc(Nc3ncc(Cl)c(Nc4cccc(C(C)(C)C)c4)n3)cc2)CC1 | 0.12 ± 0.053 °C | 19800 nM |
| COc1cc(Nc2ncc(C(F)(F)F)c(Nc3ccc(N4CCN(C)CC4)cc3)n2)ccc1Cl | 0.56 ± 0.37 °C | 14100 nM |
| CC(C)(C)NS(=O)(=O)c1cccc(Nc2nc(Nc3ccc(N4CCOCC4)cc3)ncc2Cl)c1 | -0.071 ± 0.042 °C | 22900 nM |
| Cc1cnc(Nc2ccc(N3CCN(C)CC3)cc2)nc1Nc1cccc(C(C)(C)C)c1 | 2.9 ± 0.12 °C | 2330 nM |
| CC(C)NS(=O)(=O)c1cccc(Nc2nc(N3CCN(c4ccc(N)cc4)CC3)ncc2Br)c1 | 0.16 °C | 19200 nM |
| CCc1cnc(Nc2ccc(N3CCN(C)CC3)cc2)nc1Nc1cccc(S(=O)(=O)NC(C)C)c1 | 2.2 °C | 3990 nM |
| CC(C)NS(=O)(=O)c1cccc(Nc2nc(Nc3ccc(N4CCOCC4)cc3)ncc2Br)c1 | -0.79 °C | 39800 nM |
| COc1cccc(Nc2nc(Nc3ccc(N4CCN(C)CC4)cc3)ncc2C)c1 | 3.2 ± 0.083 °C | 1850 nM |
| CCOC(=O)c1cnc(Nc2ccc(N3CCN(C)CC3)cc2)nc1Nc1ccc(Cl)c(OC)c1 | 0.24 ± 0.13 °C | 18000 nM |
| CCOC(=O)c1cnc(Nc2ccc(N3CCN(C)CC3)cc2)nc1Nc1cccc(S(=O)(=O)NC(C)(C)C)c1 | -0.0056 ± 0.24 °C | > 20000 nM |
| Cc1cnc(Nc2ccc(N3CCN(C)CC3)cc2)nc1Nc1ccc2c(c1)OCCO2 | 4.4 ± 0.11 °C | 740 nM |
| Cc1cnc(Nc2ccc(N3CCN(C)CC3)cc2)nc1Nc1ccc2c(c1)OCO2 | 0.79 ± 0.079 °C | 12000 nM |
| COc1cc(Nc2nc(Nc3ccc(N4CCN(C)CC4)cc3)ncc2Cl)cc(OC)c1Cl | 2 ± 0.42 °C | 4700 nM |
| COc1cc(Nc2cc(C)nc(Nc3ccc(N4CCN(C)CC4)cc3)n2)ccc1Cl | 2.6 ± 0.095 °C | 2900 nM |
| COc1cc(Nc2nc(Nc3ccc(N4CCN(C)CC4)cc3)ncc2C)c(OC)cc1Cl | 0.57 ± 0.25 °C | 14000 nM |
| COc1cc(Nc2nc(Nc3ccc(N4CCN(C)CC4)cc3)ncc2Cl)cc(OC)c1 | 3.5 ± 0.17 °C | 1500 nM |
| COc1cc(Nc2ccnc(Nc3ccc(N4CCN(C)CC4)cc3)n2)ccc1Cl | 2.5 ± 0.069 °C | 3200 nM |
| CCCc1cnc(Nc2ccc(N3CCN(C)CC3)cc2)nc1Nc1ccc(Cl)c(OC)c1 | 3.1 ± 0.075 °C | 2000 nM |
| COc1cc(Nc2nc(Nc3ccc(N4CCN(C)CC4)cc3)ncc2C(C)C)ccc1Cl | 1.4 ± 0.11 °C | 7400 nM |
| COc1cc(Nc2nc(Nc3ccc(N4CCNCC4)cc3)ncc2Br)ccc1Cl | 4.5 ± 0.1 °C | 680 nM |
| CCOc1cc(Nc2nc(Nc3ccc(N4CCN(C)CC4)cc3)ncc2Cl)ccc1Cl | 3.7 ± 0.12 °C | 1300 nM |
| CN1CCN(c2ccc(Nc3nc(Nc4cccc(S(=O)(=O)NC(C)(C)C)c4)c4ccccc4n3)cc2)CC1 | 2.6 ± 0.081 °C | 2900 nM |

| Structure (SMILES) | ΔTm at 4 µM | IC50 |
| --- | --- | --- |
| Cc1cnc(Nc2ccc(N3CCN(C)CC3)cc2)nc1Nc1cccc(NC(=O)C(C)(C)C)c1 | 3.5 ± 0.19 °C | 1500 nM |
| Cc1cnc(Nc2ccc(N3CCN(C)CC3)cc2)nc1Nc1cccc(NC(=O)C(C)C)c1 | 4.1 ± 0.12 °C | 900 nM |
| Cc1cnc(Nc2ccc(N3CCN(C)CC3)cc2)nc1Nc1cccc(NC(=O)NC(C)C)c1 | 2.1 ± 0.1 °C | 4300 nM |
| CN1CCN(c2ccc(Nc3ncc(C(=O)O)c(Nc4cccc(S(=O)(=O)NC(C)(C)C)c4)n3)cc2)CC1 | -0.2 ± 0.2 °C | 25000 nM |
| COc1cc(Nc2nc(Nc3ccc(N4CCN(C)CC4)cc3)ncc2C(=O)O)ccc1Cl | 0.0094 ± 0.11 °C | 22000 nM |
| CN1CCN(c2ccc(Nc3ncc(C(N)=O)c(Nc4cccc(S(=O)(=O)NC(C)(C)C)c4)n3)cc2)CC1 | 2.7 ± 0.0089 °C | 2700 nM |
| CC(C)NS(=O)(=O)c1cccc(Nc2nc(Nc3ccc(N4CCN(C)CC4)cc3)nc3c2CCC3)c1 | 3.8 ± 0.056 °C | 1200 nM |
| CC(C)NS(=O)(=O)c1cccc(Nc2nc(Nc3ccc(N4CCN(C)CC4)cc3)nc3c2COC3)c1 | 0.6 ± 0.14 °C | 14000 nM |
| CC(C)S(=O)(=O)Nc1cccc(Nc2nc(Nc3ccc(N4CCN(C)CC4)cc3)nc3c2COC3)c1 | 3.9 ± 0.24 °C | 1000 nM |
| CN1CCN(c2ccc(Nc3nc4c(c(Nc5cccc(NS(=O)(=O)C6CC6)c5)n3)COC4)cc2)CC1 | 1.3 ± 0.12 °C | 7900 nM |
| CC(C)S(=O)(=O)Nc1cccc(Nc2nc(Nc3ccc(N4CCN(C)CC4)cc3)nc3c2CCC3)c1 | 4.3 ± 0.14 °C | 770 nM |
| CN1CCN(c2ccc(Nc3ncc(C(N)=O)c(Nc4cccc(NS(=O)(=O)C5CC5)c4)n3)cc2)CC1 | 2.3 ± 0.073 °C | 3800 nM |
| COc1cc(C(=O)NC2CCN(C)CC2)ccc1Nc1ncc(C)c(Nc2cc(OC)c(Cl)c(OC)c2)n1 | 3 ± 0.11 °C | 2200 nM |
| COc1cc(Nc2nc(Nc3ccc(C(=O)NC4CCN(C)CC4)cc3)ncc2C)cc(OC)c1Cl | 5.9 ± 0.063 °C | 2300 nM |
| Cc1cnc(Nc2ccc(N3CCN(C)CC3)cc2)nc1Nc1cccc(NS(=O)(=O)N(C)C)c1 | 3.3 ± 0.36 °C | 1800 nM |
| CN1CCN(c2ccc(Nc3ncc(F)c(Nc4ccc(C(=O)Nc5ccccc5)cc4)n3)cc2)CC1 | 0.35 ± 0.068 °C | 17000 nM |
| CN1CCN(c2ccc(Nc3ncc(F)c(Nc4ccc(C(=O)NC5CC5)cc4)n3)cc2)CC1 | 3.4 ± 0.27 °C | 1600 nM |
| Cc1cnc(Nc2ccc(CC(=O)N3CCN(C)CC3)cc2)nc1Nc1ccc(C(=O)NC2CC2)cc1 | 6.8 ± 0.15 °C | 110 nM |
| CN1CCN(C(=O)Cc2ccc(Nc3ncc(F)c(Nc4ccc(C(=O)NC5CC5)cc4)n3)cc2)CC1 | 4.2 ± 0.2 °C | 850 nM |
| Cc1cnc(Nc2ccc(N3CCN(C)CC3)cc2)nc1Nc1cccc(NS(=O)(=O)c2ccccc2)c1 | 4.1 ± 0.07 °C | 900 nM |
| Cc1cnc(Nc2ccc(N3CCN(C)CC3)cc2)nc1Nc1ccc(Cl)c(NS(=O)(=O)c2ccccc2)c1 | 4.1 ± 0.1 °C | 960 nM |

Continued by falling IC50, values first:

| ΔTm at 4 µM | IC50 | Structure (SMILES) |
| --- | --- | --- |
| 4.6 ± 0.12 °C | 630 nM | CC(C)NS(=O)(=O)c1cccc(Nc2nc(Nc3ccc(N4CCN(C)CC4)cc3)ncc2Cl)c1 |
| 4.6 ± 0.13 °C | 630 nM | Cc1cnc(Nc2ccc(N3CCN(C)CC3)cc2)nc1Nc1cccc(NS(C)(=O)=O)c1 |
| 4.6 ± 0.21 °C | 630 nM | Cc1cnc(Nc2ccc(N3CCN(C)CC3)cc2)nc1Nc1cccc(NC(=O)C2CC2)c1 |
| 4.6 ± 0.05 °C | 620 nM | CN1CCN(c2ccc(Nc3nc4c(c(Nc5ccc(Cl)c(NS(=O)(=O)C6CC6)c5)n3)CCC4)cc2)CC1 |
| 4.8 ± 0.12 °C | 540 nM | CC(C)Oc1cccc(Nc2nc(Nc3ccc(N4CCN(C)CC4)cc3)ncc2Cl)c1 |
| 4.9 ± 0.099 °C | 520 nM | CN1CCN(c2ccc(Nc3nc4c(c(Nc5cccc(S(=O)(=O)NC6CC6)c5)n3)CCC4)cc2)CC1 |
| 4.9 ± 0.11 °C | 500 nM | CN1CCN(c2ccc(Nc3nc4c(c(Nc5cccc(S(=O)(=O)NC(C)(C)C)c5)n3)CCC4)cc2)CC1 |
| 5 ± 0.13 °C | 480 nM | CC(C)NS(=O)(=O)c1cccc(Nc2nc(Nc3ccc(N4CCN(C)CC4)cc3)nc3ccccc23)c1 |
| 5.1 ± 0.039 °C | 430 nM | COc1ccc(Nc2nc(Nc3ccc(N4CCN(C)CC4)cc3)ncc2Cl)cc1OC |
| 5.2 ± 0.15 °C | 400 nM | CN1CCN(c2ccc(Nc3ncc(F)c(Nc4cccc(NS(=O)(=O)C(C)(C)C)c4)n3)cc2)CC1 |
| 5.4 ± 0.2 °C | 350 nM | CN1CCN(c2ccc(Nc3nc4c(c(Nc5ccc(Cl)c(NS(=O)(=O)C6CC6)c5)n3)COC4)cc2)CC1 |
| 5.4 ± 0.15 °C | 340 nM | CCOc1cccc(Nc2nc(Nc3ccc(N4CCN(C)CC4)cc3)ncc2C)c1 |
| 5.7 ± 0.054 °C | 270 nM | CN1CCN(c2ccc(Nc3ncc(Cl)c(Nc4cccc(S(=O)(=O)NC(C)(C)C)c4)n3)cc2)CC1 |
| 5.8 ± 0.11 °C | 260 nM | CN1CCN(c2ccc(Nc3nc(Nc4cccc(NS(=O)(=O)C5CC5)c4)c4ccccc4n3)cc2)CC1 |
| 6 ± 0.13 °C | 220 nM | CN1CCN(c2ccc(Nc3nc4c(c(Nc5cccc(NS(=O)(=O)C(C)(C)C)c5)n3)COC4)cc2)CC1 |
| 6.1 ± 0.032 °C | 200 nM | Cc1ccc(Nc2nc(Nc3ccc(N4CCN(C)CC4)cc3)nc3ccccc23)cc1S(=O)(=O)NC(C)(C)C |
| 6.3 ± 0.1 °C | 170 nM | Cc1cnc(Nc2ccc(N3CCN(C)CC3)cc2)nc1Nc1ccc(Cl)c(OC(C)C)c1 |
| 6.4 ± 0.0066 °C | 160 nM | CCOc1cc(Nc2nc(Nc3ccc(N4CCN(C)CC4)cc3)ncc2C)ccc1Cl |
| 6.4 ± 0.12 °C | 150 nM | CN1CCN(c2ccc(Nc3nc4c(c(Nc5cccc(NS(=O)(=O)C(C)(C)C)c5)n3)CCC4)cc2)CC1 |
| 6.5 ± 0.11 °C | 150 nM | Cc1cnc(Nc2ccc(N3CCN(C)CC3)cc2)nc1Nc1ccc(C(=O)NC2CC2)cc1 |
| 6.6 ± 0.1 °C | 140 nM | Cc1cnc(Nc2ccc(N3CCN(C)CC3)cc2)nc1Nc1cccc(OC(C)C)c1 |
| 7 ± 0.14 °C | 100 nM | Cc1cnc(Nc2ccc(N3CCN(C)CC3)cc2)nc1Nc1ccc(Cl)c(NS(=O)(=O)C2CC2)c1 |
| 7.1 ± 0.15 °C | 92 nM | COc1cc(Nc2nc(Nc3ccc(N4CCNCC4)cc3)ncc2C)ccc1Cl |
| 7.2 ± 0.17 °C | 85 nM | CN1CCN(c2ccc(Nc3ncc(F)c(Nc4ccc(Cl)c(NS(=O)(=O)C(C)(C)C)c4)n3)cc2)CC1 |
| 7.5 ± 0.14 °C | 66 nM | Cc1cnc(Nc2ccc(N3CCN(C)CC3)cc2)nc1Nc1cccc(NS(=O)(=O)C(C)C)c1 |
| 7.6 ± 0.047 °C | 62 nM | Cc1cnc(Nc2ccc(C(=O)NC3CCN(C)CC3)cc2)nc1Nc1cccc(NS(=O)(=O)C(C)(C)C)c1 |
| 7.6 ± 0.28 °C | 61 nM | Cc1cnc(Nc2ccc(C3CCN(C)CC3)cc2)nc1Nc1cccc(NS(=O)(=O)C(C)(C)C)c1 |
| 8.6 ± 0.09 °C | 30 nM | Cc1ccc(Nc2nc(Nc3ccc(N4CCN(C)CC4)cc3)ncc2C)cc1S(=O)(=O)NC(C)(C)C |
| 9.2 ± 0.12 °C | 18 nM | Cc1ccc(Nc2nc(Nc3ccc(N4CCN(C)CC4)cc3)ncc2C)cc1NS(=O)(=O)C(C)(C)C |
